Experimental data as given in article PMC3898987 (Bioorganic & Medicinal Chemistry, 2013).
Where a chain is given by its changes, count along the chain named.

Columns and labels:
[1] = target: T1, 5-HT3AB receptor, 5-HT3B subunit E170A (Homo sapiens, UniProt P46098); experiment: FlexStation membrane potential dye functional assay, HEK293 cells; type: cell-based
T1 construct: variant as stated: E170A
T1 sequence (P46098 24-478): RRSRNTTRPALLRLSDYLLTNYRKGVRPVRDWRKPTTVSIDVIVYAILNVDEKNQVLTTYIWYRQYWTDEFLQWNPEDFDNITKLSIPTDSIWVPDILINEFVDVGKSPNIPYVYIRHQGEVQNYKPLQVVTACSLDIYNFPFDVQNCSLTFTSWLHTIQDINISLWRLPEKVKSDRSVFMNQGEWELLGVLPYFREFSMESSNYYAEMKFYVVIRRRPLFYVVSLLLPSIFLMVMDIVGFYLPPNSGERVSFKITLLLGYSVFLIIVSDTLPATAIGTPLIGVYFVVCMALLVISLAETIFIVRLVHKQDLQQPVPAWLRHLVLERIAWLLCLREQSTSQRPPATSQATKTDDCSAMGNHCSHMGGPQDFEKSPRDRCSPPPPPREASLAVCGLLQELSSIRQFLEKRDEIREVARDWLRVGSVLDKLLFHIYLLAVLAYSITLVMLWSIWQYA
T1 sequence (O95264 22-441 partner): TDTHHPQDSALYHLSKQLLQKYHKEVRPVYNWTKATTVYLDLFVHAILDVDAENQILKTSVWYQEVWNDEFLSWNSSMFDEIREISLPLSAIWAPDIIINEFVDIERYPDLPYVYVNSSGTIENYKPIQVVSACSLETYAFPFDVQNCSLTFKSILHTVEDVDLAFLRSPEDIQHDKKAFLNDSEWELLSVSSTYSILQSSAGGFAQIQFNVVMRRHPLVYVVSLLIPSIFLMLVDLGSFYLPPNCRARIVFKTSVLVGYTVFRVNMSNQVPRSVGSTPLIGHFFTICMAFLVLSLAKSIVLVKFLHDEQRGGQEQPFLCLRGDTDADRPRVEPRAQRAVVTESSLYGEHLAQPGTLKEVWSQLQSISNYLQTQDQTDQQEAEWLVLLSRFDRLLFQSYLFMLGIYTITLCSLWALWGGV
Procedure: (§1) Human embryonic kidney (HEK) 293 cells were cultured on 90 mm tissue culture plates at 37 °C and 7% CO2 in a humidified atmosphere. They were grown in DMEM:F12 (Dulbecco’s Modified Eagle’s Medium/Nutrient Mix F12 (1:1)) with GlutaMAX I™ containing 10% fetal calf serum and passaged when confluent. […] For FlexStation assays, transfected cells were plated on 96-well plates and incubated 1–2 days before assay.
Mutagenesis reactions were performed using either the Kunkel method or the QuikChange kit (Agilent Technologies Inc., CA, USA) using human 5-HT3A or 5-HT3B receptor subunit cDNA (accession numbers: P46098 and O95264) in pcDNA3.1 (Invitrogen, Paisley, UK). Subunit numberings have been altered to the aligning residues in the mouse 5-HT3A subunit for ease of comparison with other studies.
(§2) Fluorometric studies were undertaken using a FlexStation® (Molecular Devices, Sunnyvale, CA, USA) as previously described.[11]
(§3) Fluorescence was measured every 2 s for 200 s. […] Concentration–response and inhibition curves were obtained for each mutant, and the fluorescence values were normalized to the maximal response.

[2] = target: T2, 5-HT3A receptor D165A (Homo sapiens, UniProt P46098, D160A); experiment: cell-based
T2 sequence (P46098 24-478 D160A): T1 sequence (P46098 24-478) with D137A

[3] = target: T3, 5-HT3AB receptor, 5-HT3B subunit F130A (Homo sapiens, UniProt O95264+P46098, F123A); experiment: cell-based
T3 sequence (P46098 24-478): T1 sequence (P46098 24-478)
T3 sequence (O95264 22-441 F123A): T1 sequence (O95264 22-441 partner) with F102A
Procedure: as §1, §2, §3

[4] = target: T4, 5-HT3A receptor W90C (Homo sapiens, UniProt P46098, W85C); experiment: radioligand saturation binding, transfected HEK293 membranes; settings: [3H]-palonosetron saturation, 5-HT3A W90C, 4 °C, 24 h, NB = no binding
T4 sequence (P46098 24-478 W85C): T1 sequence (P46098 24-478) with W62C
Procedure: (§4) Human embryonic kidney (HEK) 293 cells were cultured on 90 mm tissue culture plates at 37 °C and 7% CO2 in a humidified atmosphere. They were grown in DMEM:F12 (Dulbecco’s Modified Eagle’s Medium/Nutrient Mix F12 (1:1)) with GlutaMAX I™ containing 10% fetal calf serum and passaged when confluent. For radioligand binding studies, cells in 90 mm dishes were transfected at 60–70% confluency using polyethyleneimine and incubated for 3–4 days before use. For FlexStation assays, transfected cells were plated on 96-well plates and incubated 1–2 days before assay. […]
(§5) Eight-point binding assays were performed to produce saturation binding curves. […] Radioactive counts were measured using a Beckman LS6000SC liquid scintillation counter (Fullerton, California, USA).
(§6) Data were analyzed by iterative curve fitting using GraphPad Prism v5 (San Diego, CA) according to the following equation: B=Bmax[L]^n/kdn+[L]^n where B is the amount of bound radioligand, Bmax is the maximum specific binding at equilibrium, [L] is the concentration of radioligand, Kd is the equilibrium dissociation constant of the radioligand, and n is the Hill coefficient.

[5] = target: T5, 5-HT3AB receptor, 5-HT3B subunit W90C (Homo sapiens, UniProt O95264+P46098, W83C); experiment: as above; settings: [3H]-palonosetron saturation, 5-HT3AB with 5-HT3B W90C, 4 °C, 24 h
T5 sequence (P46098 24-478): T1 sequence (P46098 24-478)
T5 sequence (O95264 22-441 W83C): T1 sequence (O95264 22-441 partner) with W62C
Procedure: as §4, §5, §6

With O=C1c2cccc3c2[C@H](CCC3)CN1[C@@H]1CN2CCC1CC2 [Palonosetron] as the molecule, how does the IC50 [1] read?
The IC50 was 0.36 ± 0.11 nM.

And the IC50 [2]?
Its IC50 is 1.33 ± 0.45 nM.

What about the IC50 [3] of the same molecule?
Its IC50 is 0.84 ± 0.11 nM.

What about the Kd [4] of the same molecule?
The Kd was greater than 2 nM.

And the Kd ([4]; listed as [^3H]palonosetron)?
Its Kd is “no saturable, specific binding”.

And the Kd [5]?
The Kd was 0.34 ± 0.06 nM.
